Where a name gives a salt, the structure may show the parent alone. Read-outs that look alike come from different tables or passages of the source.
How the values were obtained:
rat primary hepatocytes = assay: MMP assay in rat primary hepatocytes; conditions: for IC50: Rattus norvegicus, Hepatocyte, read-out: MMP assays IC50 (µM) Rat Hepatocytes; for MMP assays efficacy (%) Rat Hepatocytes / MMP assays IC50 (µM) Rat Hepatocytes: mean ± SD of three experiments
HepG2 cells [1] = conditions: cited from earlier work
HepG2 cells [2] = assay: cells; conditions: Homo sapiens; for IC50: HepG2, read-out: MMP assays IC50 (µM) HepG2; for Emax: HepG2, read-out: MMP assays efficacy (%) HepG2
[3] = read-out: MMP assays IC50 (µM), qHTS-HepG2
[4] = read-out: MMP assays IC50 (µM) qHTS-HepG2

Row | SMILES | IC50 (rat primary hepatocytes) | MMP assays efficacy (%) Rat Hepatocytes (rat primary hepatocytes) | MMP assays efficacy (%) qHTS-HepG2 (HepG2 cells [1]) | IC50 (HepG2 cells [1]; [3]) | IC50 (HepG2 cells [2]) | Emax (HepG2 cells [2]) | IC50 (HepG2 cells [1]; [4]) | MMP assays IC50 (µM) Rat Hepatocytes (rat primary hepatocytes)
1 | Cc1c(C(=O)NN2CCCCC2)nn(-c2ccc(Cl)cc2Cl)c1-c1ccc(Cl)cc1 [Rimonabant] | 17.4 ± 2.83 µM | -53±1% | -127±12% | 25.6 ± 1.67 µM | 17.3 µM | 73% |  | 
2 | Nc1cc(Cl)c(O)c(Cl)c1 [4-Amino-2,6-dichlorophenol] | 29.6 ± 27.8 µM | -57±8% | -97±9% |  | 15.8 µM | 120% | 17.2 ± 13.4 µM | 
3 | COc1ccc(-c2coc3cc(O)ccc3c2=O)cc1 [Formononetin] | 13.2 ± 16.2 µM | -74±27% | -85±16% | 13.2 ± 4.88 µM | 17.8 µM | 80% |  | 
4 | COC(=O)C1=C(C)NC(C)=C(C(=O)OC(C)(C)CN(C)CCC(c2ccccc2)c2ccccc2)C1c1cccc([N+](=O)[O-])c1 (stereo not shown) [Lercanidipine hydrochloride] | 27.5 µM | -77±16% | -83±7% | 6.53 ± 0.53 µM |  | 117% |  | 
5 | Oc1ccc(-c2ccccc2)cc1Cl [Compound 2-Chloro-4-phenylphenol] | 31.8 ± 3.65 µM | -109±36% | -138±26% |  | 15.8 µM | 99% | 15.4 ± 7.86 µM | 
6 | Cc1cc(O)c2c(O)c3c(O)cccc3cc2c1 [Chrysarobin] | 19.3 ± 8.27 µM | -52±8% | -105±7% |  | 30.8 µM | 90% | 22.8 ± 3.93 µM | 
7 | O=C1c2cccc(O)c2C(=O)c2c(O)cc(CO)cc21 [Aloe-emodin] | 8.43 ± 5.96 µM | -48±19% | -78±8% |  | 7.08 µM | 90% | 1.79 ± 1.54 µM | 
8 | CCC(=O)OCC(=O)[C@@]1(OC(=O)CC)[C@@H](C)C[C@H]2[C@@H]3CCC4=CC(=O)C=C[C@]4(C)[C@@]3(F)[C@@H](O)C[C@@]21C [Betamethasone dipropionate] |  | inactive | -118±9% |  | 19.4 µM | 63% | 25.6 ± 1.67 µM | inactive
9 | Cc1ccc(C(C)(C)C)c(O)c1 [Compound 2-tert-Butyl-5-methylphenol] | 40.1 ± 6.5 µM | -66±11% | -96±7% |  | 5.01 µM | 95% | 23.5 ± 2.85 µM | 
10 | Nc1ccc([N+](=O)[O-])cc1O [Compound 2-Amino-5-nitrophenol] | 52.1 ± 17.7 µM | -63±37% | -70±18% |  | 35.5 µM | 76% | 27.4 ± 14.1 µM | 
11 | CC(C)C(=O)OCC(=O)[C@@]12O[C@H](C3CCCCC3)O[C@@H]1C[C@H]1[C@@H]3CCC4=CC(=O)C=C[C@]4(C)[C@H]3[C@@H](O)C[C@@]12C [Ciclesonide] |  | inactive |  |  | 15.5 µM | 103% | 7.91 ± 1.38 µM | inactive
12 | Oc1c2ccccc2c2c3c(cccc13)N=N2 [SP600125] | 21.1 ± 2.91 µM | -82±45% | -97±10% | 0.92 ± 0.14 µM | 1.55 µM | 105% |  | 
13 | C#C[C@]1(O)CC[C@H]2[C@@H]3CCC4=CC(=NO)CC[C@@H]4[C@H]3CC[C@@]21CC (mixture of isomers) [Norelgestromin] | 13.4 ± 12.3 µM | -55±21% | -122±2% | 13.5 ± 6.64 µM | 19.4 µM | 121% |  | 
14 | CN1C(C(=O)Nc2ccccn2)=C(O)c2sc(Cl)cc2S1(=O)=O [Lornoxicam] | 3.3 ± 2.52 µM | -57±10% | -92±10% | 9.44 ± 1.09 µM | 6.15 µM | 73% |  | 
15 | Nc1cc([N+](=O)[O-])ccc1C(=O)O [4-Nitroanthranilic acid] |  | inactive | -62±14% |  | 17.8 µM | 51% | 38.6 ± 17.2 µM | inactive
16 | C[C@@H]1C[C@H]2[C@@H]3CCC4=CC(=O)C=C[C@]4(C)[C@@]3(Cl)[C@@H](O)C[C@]2(C)[C@@]1(OC(=O)c1ccco1)C(=O)CCl [Mometasone furoate] | 14 ± 1.14 µM | -21±0% | -101±23% | 11.8 ± 0.8 µM | 8.3 µM | 71% |  | 
17 | CC(C)(C)CC(C)(C)c1ccc(O)c(Cc2ccc(Cl)cc2Cl)c1 [Clofoctol] | 15.7 ± 6.04 µM | -65±37% | -112±5% |  | 4.35 µM | 92% | 1.64 ± 0.13 µM | 

Row | SMILES | IC50 (rat primary hepatocytes) | MMP assays efficacy (%) Rat Hepatocytes (rat primary hepatocytes) | MMP assays efficacy (%) qHTS-HepG2 (HepG2 cells [1]) | IC50 (HepG2 cells [1]; [3]) | IC50 (HepG2 cells [2]) | Emax (HepG2 cells [2]) | IC50 (HepG2 cells [1]; [4]) | MMP assays IC50 (µM) Rat Hepatocytes (rat primary hepatocytes)
18 | CCC(=O)O[C@]1(C(=O)CCl)[C@@H](C)C[C@H]2[C@@H]3C[C@H](F)C4=CC(=O)C=C[C@]4(C)[C@@]3(F)[C@@H](O)C[C@@]21C [Halobetasol propionate] | 25.2 ± 7.02 µM | -82±13% | -106±7% | 15.2 ± 5.52 µM | 13.8 µM | 127% |  | 
19 | Nc1cccc(N)n1 [2,6-Diaminopyridine] | 20.9 ± 15.7 µM | -75±28% | -68±18% |  | 35.5 µM | 84% | 31.3 ± 10.3 µM | 
20 | CCCCC(CC)CN1C(=O)C2C3C=CC(C3)C2C1=O (stereo not shown) [MGK-264] | 17.8 ± 25.1 µM | -55±25% | -65±7% | 15.4 ± 10.5 µM | 28.2 µM | 84% |  | 
21 | CC(C)(C)c1ccc(O)c(O)c1 [Compound 4-tert-Butylcatechol] |  | inactive | -103±20% |  | 31.6 µM | 90% | 34.3 ± 15 µM | inactive
22 | CCCCCOC(=O)c1ccc(O)cc1 [Pentylparaben] |  | inactive | -119±16% | 8.74 ± 1.65 µM | 14.1 µM | 114% |  | inactive
23 | Cc1cccc(Nc2ccccc2)c1 [Compound 3-Methyl-N-phenylaniline] | 35.5 µM | -74±25% | -93±25% |  | 28.2 µM | 66% | 48.6 ± 5.61 µM | 
24 | CC1=NN(c2ccccc2)C(=O)C1 [Compound 1-Phenyl-3-methyl-5-pyrazolone] | 25.8 ± 10.1 µM | -62±9% | -121±16% |  | 28.2 µM | 82% | 31.8 ± 4.28 µM | 
25 | COc1ccc(C(=O)c2ccc(OC)cc2O)c(O)c1 | 29.8 ± 13.8 µM | -58±4% | -95±11% |  | 12.6 µM | 109% | 7.75 ± 1.8 µM | 
26 | O=C(c1ccccc1)c1ccc(O)cc1 [Compound 4-Hydroxybenzophenone] | 17.8 ± 28 µM | -82±39% | -87±12% |  | 28.2 µM | 116% | 41.3 ± 18.1 µM | 
27 | CCc1ccc(O)c(C(C)(C)C)c1 [Compound 2-tert-Butyl-4-ethylphenol] |  | inactive | -103±6% |  | 15.8 µM | 95% | 11.3 ± 2.6 µM | inactive
28 | Nc1ccc(O)c([N+](=O)[O-])c1 [Compound 4-Amino-2-nitrophenol] | 33.5 ± 2.73 µM | -90±12% | -86±33% |  | 14.1 µM | 97% | 15.4 ± 10.6 µM | 
29 | CCC(CC)(CC(=O)Nc1cccc(/C=C/c2nc(C3CCC3)cs2)c1)C(=O)O [Cinalukast] | 13.5 ± 5.36 µM | -67±19% | -92±29% |  | 17.3 µM | 96% | 28.8 ± 1.17 µM | 
30 | CCC(=O)Oc1ccc(/C(CC)=C(\CC)c2ccc(OC(=O)CC)cc2)cc1 [Diethylstilbestrol dipropionate] | 49.3 ± 19.5 µM | -38±22% | -112±3% |  | 7.08 µM | 101% | 10.5 ± 2.66 µM | 
31 | N#CC(C#N)=Cc1ccc(O)c(O)c1 [Tyrphostin 23] |  | inactive | -107±6% | 17.7 ± 6.46 µM | 17.3 µM | 103% |  | inactive
32 | COc1cc(C(=O)NS(=O)(=O)c2ccccc2C)ccc1Cc1cn(C)c2ccc(NC(=O)OC3CCCC3)cc12 [Zafirlukast] | 3.43 ± 1.47 µM | -114±33% | -108±3% | 10.6 ± 1.22 µM | 13.8 µM | 105% |  | 
33 | C(=C(c1ccccc1)c1ccccc1)c1ccccc1 [Triphenylethylene] | 15.2 ± 11.5 µM | -74±30% | -88±31% | 35.7 ± 14.8 µM | 31.6 µM | 54% |  | 
34 | CCc1c(C(=O)NN2CCCCC2)nn(-c2ccc(Cl)cc2Cl)c1-c1ccc(Br)cc1 [Surinabant] | 34.3 ± 22.5 µM | -81±29% | -97±6% | 33.1 ± 16.6 µM | 19.9 µM | 94% |  | 

Source: PMC6112376, “Comprehensive Analyses and Prioritization of Tox21 10K Chemicals Affecting Mitochondrial Function by in-Depth Mechanistic Studies” (Environmental Health Perspectives, 2018)
